Laboratory results published in US10098895B2, “Treatment of symptoms related to neurodegenerative disorders through pharmacological dermal activation of cranial nerves” (GLIA, LLC, priority 2016, dated 2018).

Columns and labels:
[1] = test system: essential tremor; assay: Example 7: essential tremor subject with contact lens discomfort; type: in vivo, human
Procedure: A person developed persistent right hand tremors of a kinetic (non-resting) type that has been continuous over the past 6 years. […] This condition had not worsened over time. […] Initially, their doctor thought that these symptoms were stress related and they have been taking 2.5 mg of escitalopram for over 6 years. […] The subject was not on hormone replacement therapy or any other medication.
Concomitantly, the subject suffered from uncomfortable eyes, with a sticky burning sensation and development of blurred vision after about 5-6 hours of contact lens wear. For the past 3 years, the subject was administered 1% progesterone gel (1 mg per day) by dermal application to the forehead once per night. The progesterone gel prolonged comfortable contact lens wear time with sustained visual acuity from 5-6 hours to greater than 15 hours. […] After 2 years of treatment, the benefits of progesterone dermal application persisted for at least 3 days without treatment. There was no effect of the progesterone on their tremor symptoms.
After allowing for washout of progesterone for 3 days, they began forehead application of 0.5-0.75 mg dronabinol once daily at night.
The dronabinol administration regimen was altered by dividing equally the once daily dose of 0.5-0.75 mg dronabinol between the conchae of the left ear, the conchae of the right ear, and the forehead. […] Comfortable contact lens wear, with ease of insertion and removal, and visual acuity extends for 15 hours or more after dronabinol application.
Contact lens comfort wear duration was greater than 15 hours.
In April 2017, the subject, while still being treated with 1% progesterone applied to the forehead, instituted a once-daily low dose topical testosterone applied to the forehead and ear conchae to determine if doing so would produce a beneficial impact on further tremor reduction and in particular essential tremor triggered by caffeine consumption. […] They stopped the treatment to assess whether the tremor would return to pre-testosterone treatment levels. As of August 2017, the subject is without noticeable tremor. The caffeine trigger for tremor onset, which had been recognized throughout all treatments, has not re-appeared since the completion of the 4-week testosterone treatment. The subject continues on low-dose progesterone 1% applied daily to the forehead as the only treatment.

[2] = test system: Parkinson's disease symptoms; assay: Example 2: Parkinson's disease subject, topical progesterone and testosterone; type: in vivo, human
Excerpt: A person was diagnosed with Parkinson's disease in August of 2015. Notable symptoms include both resting and action tremor of the left hand and fingers, forearm, and, to a lesser extent, the right hand and the left leg. Handwriting and computer keyboard work were difficult. They had ocular symptoms associated with the disease, including dry eye disease with moderate to severe burning and grittiness, rapid blink rate, and partial blinking. They used artificial tears constantly in an attempt to alleviate the ocular symptoms. They had not been on any Parkinson's medications. Their Parkinson's tremor followed an “on-off” cycle that correlated with their stress levels, the “on” cycle being times with low stress and few symptoms, and the “off” cycle induced by stress showing an increase in symptoms.
In late February 2017, the subject started applying single daily doses of 0.125% testosterone to the forehead and ear conchae. By the third day of treatment, the subject was tremor-free for periods of 4-6 hours, and the “on” part of the cycle was more frequent. […] The dose of testosterone was increased to 0.2% once daily in early April.
In July 2017, testosterone application was stopped after a taper to evaluate its effects. […] On Aug. 17, 2017, they reported extreme anxiety.
That same afternoon, the subject applied 0.2% testosterone to their forehead and ear conchae, and the next day reported less anxiety and more “on” cycles. By Aug. 20, 2017, they reported having stabilized on the once daily applications with a 60% or greater increase in “on” periods. On August 28, they reported going 9 hours without tremors and leg spasms. On Aug. 30, 2017, the subject was able to walk 8 miles and exercised in between. They described themself as feeling 100%.

[3] = test system: Parkinson's disease symptoms; assay: Example 1: Parkinson's disease patient, dermal application to forehead and ear conchae
Procedure: A person was diagnosed with the early stages of Parkinson's disease in December of 2014. Their symptoms included tremors in the hands, impaired short term memory, slow and uncontrolled rigid movements while walking and eating, and declining ocular blink function. The patient also had dry eyes with hyper-tearing, burning, and itching.
The patient was also treated with progesterone 1% on the forehead initially once daily beginning in March 2015. […] The progesterone was applied as needed for about a year.
Instead of the prescribed regimen, the patient began dermal application of dronabinol 1.25 mg 2 times daily to three sites: (i) the forehead, (ii) the concha of the left ear, and (iii) the concha of the right ear. Each dose of 1.25 mg was divided equally between the three application sites. This treatment regimen began Friday Jun. 10, 2016 concurrent with the discontinuation of rasagiline.
In February 2017, the patient, who suffers from debilitating moderate spinal stenosis, started taking Azilect (rasagiline) and carbidopa-levodopa to improve their walking and flexibility. […] The patient decided that, together with the prescribed medications, they would switch from dronabinol to topical testosterone gel applied to the forehead and ear conchae to see if this would impact their longstanding low testosterone levels.
In March 2017, topical testosterone gel application was instituted as an adjunct to is the prescribed Azilect and carbidopa-levodopa.
The patient voluntarily stopped topical testosterone for 3 weeks in June 2017. […] At the end of 3 weeks, topical testosterone was re-instituted as an adjunct to the prescribed medications.

[4] = once-daily low dose topical testosterone to forehead and ear conchae, 4 weeks, with 1% progesterone to forehead
[5] = prescribed Azilect (rasagiline) together with carbidopa-levodopa

With `C[C@]12CC[C@H]3[C@@H](CCC4=CC(=O)CC[C@@]43C)[C@@H]1CC[C@@H]2O` [testosterone] the “caffeine trigger of essential tremor” value [1, 4] was “near complete resolution of the caffeine trigger”, the “reduction in tremor amplitude and frequency over the original baseline” value [1, 4] was no more than 90% and the tremor-free days ([2]; 0.125% testosterone once daily, mid-March) was “two full days tremor-free”. For the same compound, the “tremor amplitude and resolution” value ([2]; 0.125% testosterone single daily doses to forehead and ear conchae) was “the amplitude was less, and the tremors resolved sooner”, the tremor-free periods ([2]; 0.125% testosterone single daily doses to forehead and ear conchae, by the third day) was 4 to 6 h and the “time without tremors and leg spasms” value ([2]; 0.2% testosterone once daily, August 28) was 9 h. The “increase in 'on' periods” value ([2]; 0.2% testosterone once daily, by Aug. 20, 2017) was no less than 60%, the anxiety ([2]; 0.2% testosterone re-applied to forehead and ear conchae, next day) was “less anxiety” and the “symptom trend after stopping treatment” value ([2]; 6 weeks of testosterone abstinence) was “downward trend in symptoms to pre-treatment levels”. The “blood total and free testosterone” value ([2]; July 2017, after topical testosterone 0.125-0.2% once daily) was “mildly elevated total and free testosterone”, the “tremors after stopping treatment” value ([2]; day 3 of testosterone abstinence) was “tremors were more frequent” and the “stress management, mood, libido” value ([2]; testosterone 0.2% once daily, through April 2017) was “improved stress management, elevated mood with increase in libido and vaginal lubrication”. The “disease progression, assessed by neurologists” value ([2]; testosterone administration, no prescribed Parkinson's medications) was “no disease progression”, the negative side effects ([2]; topical testosterone, February to July 2017) was “No negative side effects” and the “overall functioning after resumption” value ([3]; testosterone resumed after a three week hiatus) was “returned immediately to the improved levels”. For the same compound, the “mental stability, reported by wife” value ([3]; testosterone to forehead and ears, one-year period up to August 2017) was “very positive impact on their mental stability”, the adverse events ([3]; throughout low dose neural cranial treatment) was “no adverse events were noted” and the “cognitive and non-motor symptoms” value ([3]; topical testosterone gel to forehead and ear conchae, adjunct to Azilect and carbidopa-levodopa, by the third day) was “improvement in cognitive and non-motor symptoms”. For the same compound, the “cognitive and emotional function after stopping treatment” value ([3]; topical testosterone stopped for 3 weeks, within 3 days) was “significant decline in cognitive and emotional function”.

With `C#CCN[C@@H]1CCc2ccccc21` [Azilect, rasagiline] the motor function [3, 5] was “some motor function improvement” and the tremor [3, 5] was “no more improved than when they were applying dronabinol alone”.

`CN(C)CCC[C@@]1(c2ccc(F)cc2)OCc2cc(C#N)ccc21` [escitalopram] was tested, and the tremor ([1]; 2.5 mg of escitalopram for over 6 years) was “no resolution of the tremor”.
